Here are results for 27 compounds from US10544106B2, “Certain chemical entities, compositions, and methods” (NeuPharma, Inc., priority 2016, dated 2020).

pIC50: −log10 of the molar value. Some results are limits rather than exact numbers.

Chain of BTK (Q06187 whole entry): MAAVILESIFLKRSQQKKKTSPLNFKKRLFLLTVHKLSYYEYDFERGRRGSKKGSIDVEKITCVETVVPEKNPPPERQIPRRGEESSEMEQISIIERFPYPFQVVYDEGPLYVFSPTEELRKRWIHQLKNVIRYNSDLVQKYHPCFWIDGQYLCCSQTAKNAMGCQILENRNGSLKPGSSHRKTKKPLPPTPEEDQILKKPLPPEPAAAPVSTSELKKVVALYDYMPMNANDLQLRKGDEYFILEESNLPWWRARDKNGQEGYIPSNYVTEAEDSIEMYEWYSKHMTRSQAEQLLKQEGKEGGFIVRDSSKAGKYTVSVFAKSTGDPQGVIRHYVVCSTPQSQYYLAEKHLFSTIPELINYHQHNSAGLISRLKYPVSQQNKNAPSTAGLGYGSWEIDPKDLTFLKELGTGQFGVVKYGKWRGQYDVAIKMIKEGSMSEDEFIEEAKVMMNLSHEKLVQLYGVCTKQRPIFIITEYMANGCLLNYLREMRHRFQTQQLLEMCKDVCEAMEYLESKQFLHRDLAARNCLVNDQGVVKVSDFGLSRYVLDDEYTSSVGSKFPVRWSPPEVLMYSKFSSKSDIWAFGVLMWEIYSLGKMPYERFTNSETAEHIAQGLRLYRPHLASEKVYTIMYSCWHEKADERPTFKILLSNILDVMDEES

One test has as its target BTK (Homo sapiens (Human), UniProt Q06187). The experiment in a line: Z'-LYTE kinase inhibition assay against BTK. The test is classed as biochemical. The following applies: compound at 100 nM; ATP concentration at Km. On the procedure: Inhibitory activities of compounds against BTK, EGFR T790M, EGFR L858R, and EGFR L858R/T790M were measured using Z′-LYTE® Method from Life Technologies as briefly described in the following.
Test Compounds are screened in 1% DMSO (final) in the well. For 10 point titrations, 3-fold serial dilutions are conducted from the starting concentration. All ATP Solutions are diluted to a 4× working concentration in Kinase Buffer (50 mM HEPES pH 7.5, 0.01% BRIJ-35, 10 mM MgCl2, 1 mM EGTA). Peptide/Kinase Mixtures are diluted to a 2× working concentration in the appropriate Kinase Buffers as described below. • (i) Peptide/Kinase Mixtures for measurement of EGFR (ErbB1) L858R: • The 2×EGFR (ErbB1) L858R/Tyr 04 mixture is prepared in 50 mM HEPES pH 7.5, 0.01% BRIJ-35, 10 mM MgCl2, 4 mM MnCl2. 1 mM EGTA, 2 mM DTT. The final 10 μL Kinase Reaction consists of 0.2-1.68 ng EGFR (ErbB1) L858R and 2 μM Tyr 04 in 50 mM HEPES pH 7.5, 0.01% BRIJ-35, 10 mM MgCl2, 2 mM MnCl2, 1 mM EGTA, 1 mM DTT. After the 1 hour Kinase Reaction incubation, 5 μL of a 1:64 dilution of Development Reagent B is added. • (ii) Peptide/Kinase Mixtures for measurement of EGFR (ErbB1) T790M: The 2×EGFR (ErbB1) T790M/Tyr 04 mixture is prepared in 50 mM HEPES pH 6.5, 0.01% BRIJ-35, 10 mM MgCl2, 1 mM EGTA, 0.02% NaN3. The final 10 μL Kinase Reaction consists of 3.9-30.2 ng EGFR (ErbB1) T790M and 2 μM Tyr 04 in 50 mM HEPES pH 7.0, 0.01% BRIJ-35, 10 mM MgCl2, 1 mM EGTA, 0.01% NaN3. After the 1 hour Kinase Reaction incubation, 5 μL of a 1:64 dilution of Development Reagent B is added. • (iii) Peptide/Kinase Mixtures for measurement of EGFR (ErbB1) L858R/T790M: The 2×EGFR (ErbB1) T790M L858R/Tyr 04 mixture is prepared in 50 mM HEPES pH 6.5, 0.01% BRIJ-35, 10 mM MgCl2, 1 mM EGTA, 0.02% NaN3. The final 10 μL Kinase Reaction consists of 0.38-4.22 ng EGFR (ErbB1) T790M L858R and 2 μM Tyr 04 in 50 mM HEPES pH 7.0, 0.01% BRIJ-35, 10 mM MgCl2, 1 mM EGTA, 0.01% NaN3. After the 1 hour Kinase Reaction incubation, 5 μL of a 1:64 dilution of Development Reagent B is added. • (iv) Peptide/Kinase Mixtures for measurement of BTK: The 2×BTK/Tyr 01 mixture is prepared in 50 mM HEPES pH 7.5, 0.010/BRIJ-35, 10 mM MgCl2, 1 mM EGTA. The final 10 μL Kinase Reaction consists of 1.04-10.4 ng BTK and 2 μM Tyr 01 in 50 mM HEPES pH 7.5, 0.01% BRIJ-35, 10 mM MgCl2, 1 mM EGTA. After the 1 hour Kinase Reaction incubation, 5 μL of a 1:256 dilution of Development Reagent B is added.
Reaction starts by 30-second shaking of mixture consisting of 2.5 μL 4× test compound, 5 μL 2× kinase reaction mixture and 2.5 μL 4×ATP Solution on Bar-coded Corning, low volume NBS, black 384-well plate (Corning Cat. #3676). Then the mixture is incubated for 60-minute at room temperature for the kinase reaction, followed by addition of 5 μL of a 1:1024 dilution of development reagent A and 30-second plate shake. The mixture is then incubated for another 60-minute at room temperature for development reaction. Finally fluorescence is read by plate reader.
The Z′-LYTE assay was carried out with ATP concentration at Km. The scale utilized in Tables 2-6 is as follows: ++ more than 50% inhibition and + less than 50% inhibition.
To determine IC50 of a compound against a kinase, a series of concentrations of the compound were tested for the inhibition. IC50 was calculated by plotting the concentration of compound vs the percentage of inhibition in treated wells using GraphPad Prism 5. […] The scale utilized in Table 7 is as follows: ++ less than 100 nM and + greater than 100 nM.
The term inhibition denotes the drop in the measured response relative to a control, in per cent. Read a low inhibition as a response near the control. The compound `C=CC(=O)N1CCCC(c2cc(-c3cccc(Nc4cccc(C(F)(F)F)c4)c3)cc3cncnc23)C1` (stereo not drawn) [C029, 1-(3-(6-(3-((3-(trifluoromethyl)phenyl)amino)phenyl)quinazolin-8-yl)piperidin-1-yl)prop-2-en-1-one] had an inhibition at 0.1 µM of under 50%. Still for that read-out and setting: then `C=CC(=O)N1CCCC(c2cc(-c3ccc(Oc4ccccc4)cc3)cc3c(N)ncnc23)C1` (stereo not drawn) [C030, 1-(3-(4-amino-6-(4-phenoxyphenyl)quinazolin-8-yl)piperidin-1-yl)prop-2-en-1-one], with under 50%; and `C=CC(=O)N1CCCC(c2cc(-c3cccnc3)cc3cncnc23)C1` (stereo not drawn) [C031, 1-(3-(6-(pyridin-3-yl)quinazolin-8-yl)piperidin-1-yl)prop-2-en-1-one], with under 50%; and `C=CC(=O)N1CCC(n2c(-c3ccccc3F)nc3cncnc32)C1` (stereo not drawn) [C032, 1-(3-(8-(2-fluorophenyl)-9H-purin-9-yl)pyrrolidin-1-yl)prop-2-en-1-one], with under 50%. In turn, `C=CC(=O)N1CCC(n2c(-c3ccccc3Cl)nc3cncnc32)C1` (stereo not drawn) [C033, 1-(3-(8-(2-chlorophenyl)-9H-purin-9-yl)pyrrolidin-1-yl)prop-2-en-1-one] registered an inhibition at 0.1 µM of under 50%. The same measure, in the same setting: then `C=CC(=O)N1CCCC(c2cc(-c3ccccc3)cc3c(N)ncnc23)C1` (stereo not drawn) [C034, 1-(3-(4-amino-6-phenylquinazolin-8-yl)piperidin-1-yl)prop-2-en-1-one], with under 50%; and `C=CC(=O)Nc1cccc(-c2cc(-c3ccc(C(=O)Nc4cc(C)ccn4)cc3)cc3cnc(N)nc23)c1` [C036, 4-(8-(3-acrylamidophenyl)-2-aminoquinazolin-6-yl)-N-(4-methylpyridin-2-yl)benzamide], with under 50%; and `C=CC(=O)N1CCCC(c2ccc(-c3ccc(C(=O)Nc4ccccn4)cc3)c3cncnc23)C1` (stereo not drawn) [C037, 4-(8-(1-acryloylpiperidin-3-yl)quinazolin-5-yl)-N-(pyridin-2-yl)benzamide], with under 50%. As to `C=CC(=O)Nc1cccc(-c2cc(-c3ccc(C)nc3)cc3cnc(N)nc23)c1` [C038, N-(3-(2-amino-6-(6-methylpyridin-3-yl)quinazolin-8-yl)phenyl)acrylamide], the inhibition at 0.1 µM was over 50%. The same measure, in the same setting: then `C=CC(=O)Nc1cccc(-c2ccc(-c3ccc(C(=O)Nc4ccccn4)cc3)c3cncnc23)c1` [C039, 4-(8-(3-acrylamidophenyl)quinazolin-5-yl)-N-(pyridin-2-yl)benzamide], with under 50%; and `C=CC(=O)Nc1cccc(-c2cc(-c3ccc(C(=O)Nc4ccccn4)cc3)cc3cnc(N)nc23)c1` [C040, 4-(8-(3-acrylamidophenyl)-2-aminoquinazolin-6-yl)-N-(pyridin-2-yl)benzamide], with under 50%; and `C=CC(=O)Nc1cccc(-c2cc(-c3ccc(C(=O)Nc4cc(C)ccn4)cc3)cc3cncnc23)c1` [C041, 4-(8-(3-acrylamidophenyl)quinazolin-6-yl)-N-(4-methylpyridin-2-yl)benzamide], with over 50%. On the same count and under the same terms, the figure for `C=CC(=O)N1CCC(c2cc(-c3cccnc3)cc3cncnc23)C1` (stereo not drawn) [C043, 1-(3-(6-(pyridin-3-yl)quinazolin-8-yl)pyrrolidin-1-yl)prop-2-en-1-one] is under 50%. In turn, `C=CC(=O)Nc1cccc(-c2cc(-c3ccc(C(=O)Nc4ccccn4)cc3)n3cnccc23)c1` [C044, 4-(5-(3-acrylamidophenyl)pyrrolo[1,2-c]pyrimidin-7-yl)-N-(pyridin-2-yl)benzamide] displayed an inhibition at 0.1 µM of under 50%.

Compound `C=CC(=O)N1CCCC(c2cc(-c3cccnc3)cc3cnc(N)nc23)C1` (stereo not drawn) [C045, 1-(3-(2-amino-6-(pyridin-3-yl)quinazolin-8-yl)piperidin-1-yl)prop-2-en-1-one] gave an inhibition at 0.1 µM of under 50%. The same measure, in the same setting: then `C=CC(=O)N1CCC(c2cc(-c3ccc(C(=O)Nc4ccccn4)cc3)n3cnccc23)C1` (stereo not drawn) [C046, 4-(5-(1-acryloylpyrrolidin-3-yl)pyrrolo[1,2-c]pyrimidin-7-yl)-N-(pyridin-2-yl)benzamide], with under 50%; and `C=CC(=O)N1CCC(c2cc(-c3ccccc3)cc3cncnc23)C1` (stereo not drawn) [C047, 1-(3-(6-phenylquinazolin-8-yl)pyrrolidin-1-yl)prop-2-en-1-one], with over 50%; and `C=CC(=O)N1CCC(c2cc(-c3ccc(Oc4ccccc4)cc3)cc3cncnc23)C1` (stereo not drawn) [C048, 1-(3-(6-(4-phenoxyphenyl)quinazolin-8-yl)pyrrolidin-1-yl)prop-2-en-1-one], with over 50%. The same measure, in the same setting: the figure for `C=CC(=O)N1CCC(c2ccc(-c3ccc(C(=O)Nc4ccccn4)cc3)c3cncnc23)C1` (stereo not drawn) [C049, 4-(8-(1-acryloylpyrrolidin-3-yl)quinazolin-5-yl)-N-(pyridin-2-yl)benzamide] is under 50%.

Consider `C=CC(=O)Nc1cccc(-c2cc(-c3ccc(C(=O)Nc4ccccc4)nc3)cc3cncnc23)c1` [C050, 5-(8-(3-acrylamidophenyl)quinazolin-6-yl)-N-phenylpicolinamide], for which the inhibition at 0.1 µM was over 50%. Same read-out and setting: then `C=CC(=O)Nc1cccc(-c2cc(-c3ccc(C(=O)Nc4ccccc4)cc3)cc3cncnc23)c1` [C053, 4-(8-(3-acrylamidophenyl)quinazolin-6-yl)-N-phenylbenzamide], with over 50%; and `C=CC(=O)N1CCC(c2cc(-c3ccc(C(=O)Nc4ccccc4)cc3)n3cnccc23)C1` (stereo not drawn) [C054, 4-(5-(1-acryloylpyrrolidin-3-yl)pyrrolo[1,2-c]pyrimidin-7-yl)-N-phenylbenzamide], with under 50%. Still for that read-out and setting: the figure for `C=CC(=O)Nc1cccc(-c2cc(-c3cncc(C(F)(F)F)c3)cc3cncnc23)c1` [C055, N-(3-(6-(5-(trifluoromethyl)pyridin-3-yl)quinazolin-8-yl)phenyl)acrylamide] is over 50%. The same measure, in the same setting: the figure for `C=CC(=O)N1CCC(c2ccc(-c3ccc(C(=O)Nc4ccccn4)cc3)c3c(N)ncnc23)C1` (stereo not drawn) [C056, 4-(8-(1-acryloylpyrrolidin-3-yl)-4-amino-quinazolin-5-yl)-(N-pyridin-2-yl)benzamide] is under 50%; for `C=CC(=O)Nc1cccc(-c2cc(-c3ccc(Oc4ccccc4)cc3)n3cnccc23)c1` [C057, N-(3-(7-(4-phenoxyphenyl)pyrrolo[1,2-c]pyrimidin-5-yl)phenyl)acrylamide] it is under 50%.

As for `C=CC(=O)N1CCC(c2cc(-c3ccc(C(=O)Nc4cccc(C(F)(F)F)c4)cc3)n3cnccc23)C1` (stereo not drawn) [C058, 4-(5-(1-acryloylpyrrolidin-3-yl)pyrrolo[1,2-c]pyrimidin-7-yl)-N-(3-(trifluoro-methyl)phenyl)benzamide], the inhibition at 0.1 µM is under 50%. Still for that read-out and setting: then `C=CC(=O)Nc1cccc(-c2cc(-c3ccc(C(=O)Nc4ccccc4)nc3)cc3cnc(N)nc23)c1` [C059, 5-(8-(3-acrylamidophenyl)-2-aminoquinazolin-6-yl)-N-phenylpicolinamide], with under 50%.

The same test, now with this note: series of concentrations; GraphPad Prism 5.
One may read the pIC50 as the IC50 on a negative log10 scale, so that one unit is a factor of ten. Lower therefore signals a large IC50. In turn, `C=CC(=O)Nc1cccc(-c2cc(-c3ccc(C)nc3)cc3cnc(N)nc23)c1` [C038, N-(3-(2-amino-6-(6-methylpyridin-3-yl)quinazolin-8-yl)phenyl)acrylamide] had a negative-log IC50 (pIC50) of over 7.00. Same read-out and setting: then `C=CC(=O)N1CCC(c2cc(-c3ccc(Oc4ccccc4)cc3)cc3cncnc23)C1` (stereo not drawn) [C048, 1-(3-(6-(4-phenoxyphenyl)quinazolin-8-yl)pyrrolidin-1-yl)prop-2-en-1-one], with over 7.00. Consider `C=CC(=O)Nc1cccc(-c2cc(-c3ccc(C(=O)Nc4ccccc4)cc3)cc3cncnc23)c1` [C053, 4-(8-(3-acrylamidophenyl)quinazolin-6-yl)-N-phenylbenzamide], for which the pIC50 is over 7.00.
